How the values were obtained:
[1] = biological target: T1, aldosterone synthase (CYP11B2) (Homo sapiens, UniProt P19099); assay: in vitro aldosterone synthase inhibition, aldosterone production in Ang II-stimulated NCI-H295R cells; assay type: cell-based; conditions: read-out: AS IC50
T1 construct: host or cells: NCI-H295R
T1 sequence (P19099 25-503): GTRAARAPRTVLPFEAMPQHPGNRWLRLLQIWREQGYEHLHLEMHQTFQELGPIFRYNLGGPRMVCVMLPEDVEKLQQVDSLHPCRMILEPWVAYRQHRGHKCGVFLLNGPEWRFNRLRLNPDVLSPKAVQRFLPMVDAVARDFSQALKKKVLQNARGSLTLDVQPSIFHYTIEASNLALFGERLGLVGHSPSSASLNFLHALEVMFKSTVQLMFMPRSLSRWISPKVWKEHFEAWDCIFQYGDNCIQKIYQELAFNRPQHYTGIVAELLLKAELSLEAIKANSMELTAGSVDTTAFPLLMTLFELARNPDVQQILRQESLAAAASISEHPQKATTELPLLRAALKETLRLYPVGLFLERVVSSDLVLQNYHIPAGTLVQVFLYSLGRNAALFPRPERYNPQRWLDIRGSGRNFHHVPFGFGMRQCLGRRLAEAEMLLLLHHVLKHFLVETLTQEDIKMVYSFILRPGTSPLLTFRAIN
Excerpt: In particular, the aldosterone synthase inhibitory activities in vitro can be determined by the following assay.
Human adrenocortical carcinoma NCI-H295R cell line is obtained from American Type Culture Collection (Manassas, Va.). Insulin/transferrin/selenium (ITS)-A supplement (100×), DMEM/F-12, antibiotic/antimycotic (100×), and fetal calf serum (FCS) are purchased from Gibco (Grand Island, N.Y.). Anti-mouse PVT scintillation proximity assay (SPA) beads and NBS 96-well plates are obtained from Amersham (Piscataway, N.J.) and Corning (Acton, Mass.), respectively. Solid black 96-well flat bottom plates were purchased from Costar (Corning, N.Y.). Aldosterone and angiotensin (Ang II) are purchased from Sigma (St. Louis, Mo.). D-[1,2,6,7-^3H(N)]aldosterone was acquired from PerkinElmer (Boston, Mass.). Nu-serum was a product of BD Biosciences (Franklin Lakes, N.J.).
For in vitro measurement of aldosterone activity, human adrenocortical carcinoma NCI-H295R cells are seeded in NBS 96-well plates at a density of 25,000 cells/well in 100 μl of a growth medium containing DMEM/F12 supplemented with 10% FCS, 2.5% Nu-serum, 1 μg ITS/ml, and 1× antibiotic/antimycotic. The medium is changed after culturing for 3 days at 37° C. under an atmosphere of 5% CO2/95% air. On the following day, cells are rinsed with 100 μl of DMEM/F12 and incubated with 100 μl of treatment medium containing 1 μM Ang II and a compound at different concentrations in quadruplicate wells at 37° C. for 24 hr. At the end of incubation, 50 μl of medium is withdrawn from each well for measurement of aldosterone production by an RIA using mouse anti-aldosterone monoclonal antibodies.
Measurement of aldosterone activity can also be performed using a 96-well plate format. Each test sample is incubated with 0.02 μCi of D-[1,2,6,7-^3H(N)]aldosterone and 0.3 μg of anti-aldosterone antibody in phosphate-buffered saline (PBS) containing 0.1% Triton X-100, 0.1% bovine serum albumin, and 12% glycerol in a total volume of 200 μl at room temperature for 1 hr. Anti-mouse PVT SPA beads (50 μl) are then added to each well and incubated overnight at room temperature prior to counting in a Microbeta plate counter. The amount of aldosterone in each sample is calculated by comparing with a standard curve generated using known quantities of the hormone.

CYP11B1 = biological target: T2, CYP11B1 (Homo sapiens, UniProt P15538); assay: in vitro CYP11B1 inhibition, steroid release from NCI-H295R cells; assay type: cell-based; conditions: for inhibition at 0.1 µM: NCI-H295R, read-out: 11B1 % I @ 100 nM
T2 construct: Thus, the NCI-H295R cells have Cyp11 B1 (steroid 11 p-hydroxylase); host or cells: NCI-H295R
T2 sequence (P15538 25-503): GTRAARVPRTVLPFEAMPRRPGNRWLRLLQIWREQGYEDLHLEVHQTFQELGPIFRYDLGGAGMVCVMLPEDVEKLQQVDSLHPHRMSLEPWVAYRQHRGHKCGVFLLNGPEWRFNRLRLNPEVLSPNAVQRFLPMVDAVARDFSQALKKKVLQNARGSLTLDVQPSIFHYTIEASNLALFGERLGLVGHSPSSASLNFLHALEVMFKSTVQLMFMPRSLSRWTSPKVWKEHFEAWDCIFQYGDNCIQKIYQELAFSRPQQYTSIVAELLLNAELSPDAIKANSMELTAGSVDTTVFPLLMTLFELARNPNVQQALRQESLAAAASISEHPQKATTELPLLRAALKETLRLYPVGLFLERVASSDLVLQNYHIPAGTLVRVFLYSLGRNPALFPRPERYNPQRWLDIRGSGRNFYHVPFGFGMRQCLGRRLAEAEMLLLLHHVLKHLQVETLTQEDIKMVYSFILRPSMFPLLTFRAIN
Excerpt: The in vitro inhibitory activities for CYP11B1 can be determined by the following assay.
The cell line NCI-H295R was originally isolated from an adrenocortical carcinoma and has been characterized in the literature through the stimulable secretion of steroid hormones and the presence of the enzymes essential for steroidogenesis. Thus, the NCI-H295R cells have Cyp11 B1 (steroid 11 p-hydroxylase). The cells show the physiological property of zonally undifferentiated human foetal adrenocortical cells which, however, have the capacity to produce the steroid hormones which are formed in the three, phenotypically distinguishable zones in the adult adrenal cortex.
The NCI-H295R cells (American Type Culture Collection, ATCC, Rockville, Md., USA) are grown in Dulbeoco's Modified Eagle'Ham F-12 Medium (DME/F12), which has been I supplemented with Ulroser SF Serum (Soprachem, Cergy-Saint-Christophe, France), insulin, transferrin, selenite (I-T-S, Becton Dickinson Biosciences, Franklin lakes, NJ, USA) and antibiotics in 75 cm^2 cell culture vessels at 37° C. and in a 95% air-5% carbon dioxide atmosphere. The cells are subsequently transferred for colony formation into a 24-well incubation vessel. They are cultivated there in DME/F12 medium, which is now supplemented with 0.1% bovine serum instead of Ultroser SF for 24 hours. The experiment is initiated by cultivating the cells in DME/F12 medium which is supplemented with 0.1% bovine serum albumin and test compound, in the presence or absence of cell stimulants, for 72 hours. The test substance is added in a concentration range from 0.2 nanomolar to […]. Cell stimulants which can be used are angiotensin 11 ([…] or 100 nanomolar), potassium ions (16 millimolar), forskolin (10 micromolar) or a combination of two stimulants.
The excretion of aldosterone, cortisol, corticosterone and estradiol/estrone into the culture medium can be detected and quantified by commercially available, specific monoclonal antibodies in radioimmunoassays in accordance with the manufacturer's instructions.
Inhibition of the release of certain steroids can be used as a measure of the respective enzyme inhibition by the added test compounds. The dose-dependent inhibition of enzymic activity by a compound is calculated by means of an inhibition plot which is characterized by an IC50.
The IC50 values for active test compounds are ascertained by a […] in order to construct inhibition plots without data weighting. The inhibition plot is calculated by fting a 4-parameter logistic function to the raw data points using the least squares method. The equation of the 4-parameter logistic function is calculated as follows: Y=(d−a)/((1+(x/c)b))+a I where: a=minimum data level b=gradient I c=ICED, d=maximum data level x=inhibitor concentration.

SMILES	IC50 [1]	11B1 % I @ 100 nM (CYP11B1)	inhibition at 0.1 µM (CYP11B1)
COC(=O)c1cncn1[C@H]1c2ccccc2[C@@H](O)CC1(C)C (relative stereo) [Compound 11, 3-(cis-4-Hydroxy-2,2-dimethyl-1,2,3,4-tetrahydro-naphthalen-r-1-yl)-3H-imidazole-4-carboxylic acid methyl ester]	59 nM	100%	
COC(=O)c1cncn1[C@H]1c2ccccc2[C@@H](O)CC1(C)C (relative stereo) [Compound 12, 3-(cis-4-Hydroxy-2,2-dimethyl-1,2,3,4-tetrahydro-naphthalen-r-1-yl)-3H-imidazole-4-carboxylic acid methyl ester]	14 nM		
CC(C)OC(=O)c1cncn1C1CCCc2ccccc21 (single isomer, unassigned) [Compound 1, 3-(1,2,3,4-Tetrahydro-naphthalen-1-yl)-3H-imidazole-4-carboxylic acid isopropyl ester]	44 nM		99%
CC(C)OC(=O)c1cncn1C1CCCc2ccc(C(=O)N3CCCC3)cc21 (single isomer, unassigned) [Compound 3, 3-[7-(Pyrrolidine-1-carbonyl)-1,2,3,4-tetrahydro-naphthalen-1-yl]-3H-imidazole-4-carboxylic acid isopropyl ester]	215 nM		87%
CCc1cncn1C1CCC(C)(C)c2ccccc21 (single isomer, unassigned) [Compound 8, 1-(4,4-Dimethyl-1,2,3,4-tetrahydro-naphthalen-1-yl)-5-ethyl-1H-imidazole]	35 nM		100%
CCc1cncn1C1CCC(C)(C)c2ccccc21 (single isomer, unassigned) [Compound 9, 1-(4,4-Dimethyl-1,2,3,4-tetrahydro-naphthalen-1-yl)-5-ethyl-1H-imidazole]	6 nM	100%	
COC(=O)c1cncn1C1c2ccccc2C(=O)CC1(C)C (single isomer, unassigned) [Compound 10, 3-(2,2-Dimethyl-4-oxo-1,2,3,4-tetrahydro-naphthalen-1-yl)-3H-imidazole-4-carboxylic acid methyl ester]	27 nM		99%
CC(C)OC(=O)c1cncn1C1CCOc2ccccc21 (single isomer, unassigned) [Compound 15, 3-Chroman-4-yl-3H-imidazole-4-carboxylic acid isopropyl ester]	103 nM		65%
CC(C)OC(=O)c1cncn1C1CCOc2ccccc21 (single isomer, unassigned) [Compound 16, 3-Chroman-4-yl-3H-imidazole-4-carboxylic acid isopropyl ester]	150 nM		
CCC(=O)Oc1cncn1C1CCCc2ccccc21 (stereo not drawn) [Compound 2, Propionic acid 3-(1,2,3,4-tetrahydro-naphthalen-1-yl)-3H-imidazol-4-yl ester]	21 nM		
CC(=O)Nc1ccc2c(c1)CCCC2n1cncc1C(=O)OC(C)C (stereo not drawn) [Compound 4, 3-(6-Acetylamino-1,2,3,4-tetrahydro-naphthalen-1-yl)-3H-imidazole-4-carboxylic acid isopropyl ester]	85 nM		
CC(C)OC(=O)c1cncn1C1CCCc2ccc(N(C)S(C)(=O)=O)cc21 (stereo not drawn) [Compound 5, 3-(7-Methanesulfonyl-methyl-amino-1,2,3,4-tetrahydro-naphthalen-1-yl)-3H-imidazole-4-carboxylic acid isopropyl ester]	352 nM		
CC(C)OC(=O)c1cncn1C1CCCc2ccc(C#N)cc21 (stereo not drawn) [Compound 6, 3-(7-Cyano-1,2,3,4-tetrahydro-naphthalen-1-yl)-3H-imidazole-4-carboxylic acid isopropyl ester]	197 nM		
CC(C)OC(=O)c1cncn1C1CCCc2cc(C3CC3)ccc21 (stereo not drawn) [Compound 7, 3-(6-Cyclopropyl-1,2,3,4-tetrahydro-naphthalen-1-yl)-3H-imidazole-4-carboxylic acid isopropyl ester]	268 nM		
COC(=O)c1cncn1C1c2ccccc2C(NCc2ccccc2)CC1(C)C (stereo not drawn) [Compound 13, 3-(4-Benzylamino-2,2-dimethyl-1,2,3,4-tetrahydro-naphthalen-1yl)-3H-imidazole-4-carboxylic acid methyl ester]	696 nM		60%
CC1(C)CSc2ccccc2C1n1ccnc1 (stereo not drawn) [Compound 14, 1-(3,3-Dimethyl-thiochroman-4-yl)-1H-imidazole]	125 nM		92%
c1ccc(COc2cncn2C2CSCc3ccccc32)cc1 (stereo not drawn) [Compound 18, 5-Benzyloxy-1-isothiochroman-4-yl-1H-imidazole]	152 nM		
CC1(C)Cc2ccccc2C1n1cncc1C(=O)NCc1ccccc1 (stereo not drawn) [Compound 19, 3-(2,2-Dimethyl-indan-1-yl)-3H-imidazole-4-carboxylic acid benzylamide]	17 nM		
CC1(C)Cc2ccccc2C1n1cncc1C(=O)NCCO (stereo not drawn) [Compound 20, 3-(2,2-Dimethyl-indan-1-yl)-3H-imidazole-4-carboxylic acid (2-hydroxy-ethyl)-amide]	6 nM		
Cc1noc(-c2cncn2C2c3ccccc3CC2(C)C)n1 (stereo not drawn) [Compound 21, 5-[3-(2,2-Dimethyl-indan-1-yl)-3H-imidazol-4-yl]-3-methyl-[1,2,4]oxadiazole]	129 nM		98%
